The results in this text go back to US11512053B2, “Arginine methyltransferase inhibitors and uses thereof” (priority 2013, dated 2022).

Like-named read-outs stand apart in the source and are kept apart here.

In assay [1] the target is full-length human PRMT6 (Flag- and His-tagged) (Homo sapiens, UniProt Q96LA8). Briefly: PRMT6 Biochemical Assay (3H-SAM Flashplate, peptide substrate). The conditions noted are these: read-out: Biochemical IC50 PRMT6. From the text:
General Materials. S-adenosylmethionine (SAM), S-adenosylhomocysteine (SAH), bicine, Tween20, dimethylsulfoxide (DMSO), bovine skin gelatin (BSG), sodium butyrate and Tris(2-carboxyethyl)phosphine hydrochloride solution (TCEP) were purchased from Sigma-Aldrich at the highest level of purity possible. ^3H-SAM was purchase from American Radiolabeled Chemicals with a specific activity of 80 Ci/mmol. 384-well streptavidin Flashplates were purchased from PerkinElmer.
Substrates. Peptide representative of human histone H4 residues 36-50 was synthesized with an N-terminal linker-affinity tag motif and a C-terminal amide cap by 21st Century Biochemicals. The peptide was purified by high-performance liquid chromatography (HPLC) to greater than 95% purity and confirmed by liquid chromatography mass spectrometry (LC-MS). The sequence was Biot-Ahx-[…]-amide and contained a monomethylated lysine at position 44 (SEQ ID NO.:5).
Molecular Biology: Full-length human PRMT6 (NM_018137.2) transcript clone was amplified from an HEK 293 cDNA library, incorporating a flanking 5′ sequence encoding a FLAG tag ([…]) (SEQ ID NO.:6) fused directly to Ser 2 of PRMT6 and a 3′ sequence encoding a hexa His sequence (HHHHHH) (SEQ ID NO.:17) fused directly to Asp 375. The amplified gene was subcloned into pFastBacMam (Viva Biotech).
Protein Expression. Recombinant baculovirus were generated according to Bac-to-Bac kit instructions (Life Technologies). […] Infections were carried out at 37° C. for 48 hours, harvested by centrifugation, and stored at −80° C. for purification.
Protein Purification. […] Column was washed with 20 mM imidazole in the same buffer and Flag-PRMT6-His was eluted with 150 mM imidazole. Pooled fractions were dialysed against buffer N^1-A and further purified by anti-flag M2 affinity chromatography. Flag-PRMT6-His was eluted with 200 ug/ml FLAG peptide in the same buffer. Pooled fractions were dialysed in 20 mM Tris, 150 mM NaCl, 10% glycerol and 5 mM β-mercaptoethanol, pH 7.8. The purity of recovered protein was 95%.
General Procedure for PRMT6 Enzyme Assays on Peptide Substrates. The assays were all performed in a buffer consisting of 20 mM Bicine (pH=7.6), 1 mM TCEP, 0.005% BSG, and 0.002% Tween 20, prepared on the day of use. Compounds in 100% DMSO (1 ul) were spotted into a polypropylene 384-well V-bottom plates (Greiner) using a Platemate Plus outfitted with a 384-channel head (Thermo Scientific). DMSO (1 ul) was added to Columns 11, 12, 23, 24, rows A-H for the maximum signal control and 1 ul of SAH, a known product and inhibitor of PRMT6, was added to columns 11, 12, 23, 24, rows I-P for the minimum signal control. A cocktail (40 ul) containing the PRMT6 enzyme was added by Multidrop Combi (Thermo-Fisher). The compounds were allowed to incubate with PRMT6 for 30 min at room temperature, then a cocktail (10 ul) containing SAM and peptide was added to initiate the reaction (final volume=51 ul). The final concentrations of the components were as follows: PRMT6 was 1 nM, ^3H-SAM was 200 nM, non-radiolabeled SAM was 250 nM, peptide was 75 nM, SAH in the minimum signal control wells was 1 mM, and the DMSO concentration was 2%. The assays were stopped by the addition of non-radiolabeled SAM (10 ul) to a final concentration of 400 uM, which dilutes the ^3H-SAM to a level where its incorporation into the peptide substrate is no longer detectable. 50 ul of the reaction in the 384-well polypropylene plate was then transferred to a 384-well Flashplate and the biotinylated peptides were allowed to bind to the streptavidin surface for at least 1 hour before being washed once with 0.1% Tween20 in a Biotek ELx405 plate washer. The plates were then read in a PerkinElmer TopCount plate reader to measure the quantity of ^3H-labeled peptide bound to the Flashplate surface, measured as disintegrations per minute (dpm) or alternatively, referred to as counts per minute (cpm). […]

Assay [2] concerns mono-methyl arginine in RKO cells. As to the kind of experiment: RKO Methylation Assay, In Cell Western (ICW) for detection of mono-methyl arginine and DNA content. To be noted: Homo sapiens, RKO, 72 h, RKO cells, read-out: In Cell Western EC30. The class given is cell-based. From the text: RKO adherent cells were purchased from ATCC (American Type Culture Collection), Manassas, Va., USA. DMEM/Glutamax medium, penicillin-streptomycin, heat inactivated fetal bovine serum, 0.05% trypsin and D-PBS were purchased from Life Technologies, Grand Island, N.Y., USA. Odyssey blocking buffer, 800 CW goat anti-rabbit IgG (H+L) antibody, and Licor Odyssey infrared scanner were purchased from Licor Biosciences, Lincoln, Nebr., USA. Mono-methyl arginine antibody was purchased from Cell Signaling Technology, Danvers, Mass., USA. Methanol was purchased from VWR, Franklin, Mass., USA. 10% Tween 20 was purchased from KPL, Inc., Gaithersburg, Md., USA. DRAQ5 was purchased from Biostatus Limited, Leicestershire, UK.
RKO adherent cells were maintained in growth medium (DMEM/Glutamax medium supplemented with 10% v/v heat inactivated fetal bovine serum and 100 units/mL penicillin-streptomycin) and cultured at 37° C. under 5% CO2.
Cell treatment, In Cell Western (ICW) for detection of mono-methyl arginine and DNA content. […] Compound (100 nL) from a 96-well source plate was added directly to 384 well cell plate. Plates were incubated at 37° C., 5% CO2 for 72 hours. After three days of incubation, plates were brought to room temperature outside of the incubator for ten minutes and blotted on paper towels to remove cell media. 50 μL of ice cold 100% methanol was added directly to each well and incubated for 30 min at room temperature. After 30 min, plates were transferred to a Biotek EL406 plate washer and washed 2 times with 100 μL per well of wash buffer (1×PBS). Next 60 μL per well of Odyssey blocking buffer (Odyssey Buffer with 0.1% Tween 20 (v/v)) were added to each plate and incubated 1 hour at room temperature. Blocking buffer was removed and 20 μL per well of primary antibody was added (mono-methyl arginine diluted 1:200 in Odyssey buffer with 0.1% Tween 20 (v/v)) and plates were incubated overnight (16 hours) at 4° C. Plates were washed 5 times with 100 μL per well of wash buffer. […] The plates were washed 5 times with 100 μL per well wash buffer then 2 times with 100 μL per well of water. Plates were allowed to dry at room temperature then imaged on the Licor Odyssey machine which measures integrated intensity at 700 nm and 800 nm wavelengths. Both 700 and 800 channels were scanned.
Calculations: First, the ratio for each well was determined by:
Each plate included fourteen control wells of DMSO only treatment (minimum activation) as well as fourteen control wells for maximum activation treated with 20 μM of a reference compound. The average of the ratio values for each control type was calculated and used to determine the percent activation for each test well in the plate. Reference compound was serially diluted three-fold in DMSO for a total of nine test concentrations, beginning at 20 μM. Percent activation was determined and EC30 curves were generated using triplicate wells per concentration of compound.

The mark [3] stands for this setting: single experiment or average of multiple experiments.
The mark [4] stands for this setting: 72 hours compound incubation, mono-methyl arginine signal normalised to DNA content (DRAQ5), percent activation vs 20 μM reference compound.
[5] abbreviates: 72 hours incubation, mono-methyl arginine signal normalised to DNA content, single experiment or average of multiple experiments.

The IC50 is the concentration at which inhibition is half-maximal. What is called EC30 is the concentration at which the effect reaches the 30% level.

Sequence of full-length human PRMT6 (Flag- and His-tagged) (Q96LA8 with tags, fused parts or gaps): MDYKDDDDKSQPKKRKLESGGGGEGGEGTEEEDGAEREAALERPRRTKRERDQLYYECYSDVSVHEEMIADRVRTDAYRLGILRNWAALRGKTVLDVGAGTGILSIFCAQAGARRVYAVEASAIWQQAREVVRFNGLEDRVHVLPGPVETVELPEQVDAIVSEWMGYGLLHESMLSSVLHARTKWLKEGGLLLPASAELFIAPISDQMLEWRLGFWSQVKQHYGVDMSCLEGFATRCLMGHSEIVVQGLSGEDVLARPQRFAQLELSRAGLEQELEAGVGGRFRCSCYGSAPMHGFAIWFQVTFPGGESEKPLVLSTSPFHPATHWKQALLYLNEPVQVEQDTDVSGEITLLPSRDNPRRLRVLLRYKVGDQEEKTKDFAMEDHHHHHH

For `CCOCC1CC(COCC)CC(c2n[nH]cc2CN(C)CCNC)C1` (stereo not shown) [Compound 119], the IC50 in assay [1] is 1.01 to 3 µM; in assay [1] (setting [3]) it was 2.75 µM. Further, the EC30 is under 3 µM in assay [2] (setting [4]) and 0.0773 µM in assay [2] (setting [5]).
For `CNCCN(C)Cc1c[nH]nc1[C@H]1CC[C@@]2(CCN(Cc3ccc(OCCOC)cc3)C2=O)CC1` [Compound 120], the values for the IC50 in assay [1] and in assay [1] (setting [3]) were under 0.1 µM and 0.0428 µM, respectively. Further, the EC30 in assay [2] (setting [4]) is under 3 µM; in assay [2] (setting [5]), 0.0098 µM.
Consider `CNCCN(C)Cc1c[nH]nc1C1CC(OCC(C)C)CC(OCC(C)C)C1` (stereo not shown) [Compound 122], for which the IC50 in assay [1] and in assay [1] (setting [3]) was over 10 µM in each case. In assay [2] (setting [5]), the EC30 is 0.345 µM.
Consider `CNCCN(C)Cc1c[nH]nc1[C@H]1CC[C@]2(CCN(Cc3ccc(F)cc3)C2=O)CC1` [Compound 123], for which the IC50 in assay [1] is under 0.1 µM; in assay [1] (setting [3]), 0.018 µM. The EC30 in assay [2] (setting [4]) is under 3 µM; in assay [2] (setting [5]), 0.044 µM.
For the molecule `CNCCN(C)Cc1c[nH]nc1[C@H]1CC[C@]2(CCN(CC(C)C)C2=O)CC1` [Compound 124], the IC50 was under 0.1 µM in assay [1] and 0.0262 µM in assay [1] (setting [3]). Besides, the EC30 was under 3 µM in assay [2] (setting [4]) and 0.0214 µM in assay [2] (setting [5]).
Regarding `CNCCN(C)Cc1c[nH]nc1[C@H]1CC[C@@]2(CCN(Cc3ccc(F)cc3)C2=O)CC1` [Compound 125], the IC50 was under 0.1 µM in assay [1] and 0.0131 µM in assay [1] (setting [3]). Besides, the concentration for an effect of 30% (EC30) in assay [2] (setting [4]) was under 3 µM; in assay [2] (setting [5]), 0.0876 µM.
For the molecule `CNCCN(C)Cc1c[nH]nc1[C@H]1CC[C@@]2(CCN(Cc3cc(F)cc(F)c3)C2=O)CC1` [Compound 126], the IC50 in assay [1] was under 0.1 µM; in assay [1] (setting [3]), 0.0094 µM. Moreover, the EC30 in assay [2] (setting [4]) was under 3 µM; in assay [2] (setting [5]) it was 0.638 µM.
On the same counts, the results for `CNCCN(C)Cc1c[nH]nc1[C@H]1CC[C@@]2(CCN(Cc3ccccc3)C2=O)CC1` [Compound 127] are under 0.1 µM, 0.0223 µM, under 3 µM and 0.0292 µM.
Turning to `CNCCN(C)Cc1c[nH]nc1[C@H]1CC[C@]2(CCN(Cc3ccccc3)C2=O)CC1` [Compound 128], the IC50 in assay [1] was under 0.1 µM; in assay [1] (setting [3]), 0.0131 µM. In addition, the EC30 is under 3 µM in assay [2] (setting [4]) and 1.07 µM in assay [2] (setting [5]).
For `CNCCN(C)Cc1c[nH]nc1[C@H]1CC[C@@]2(CCN(CC(C)C)C2=O)CC1` [Compound 129] the same measures were under 0.1 µM, 0.0297 µM, under 3 µM and 0.0045 µM.
On to `CCOC1CC(OCC)CC(c2n[nH]cc2CN(C)CCNC)C1` (stereo not shown) [Compound 132], for which the IC50 in assay [1] is 3.01 to 10 µM; in assay [1] (setting [3]), 5.5 µM. Further, the EC30 in assay [2] (setting [5]) amounted to 0.0038 µM.
In the case of `CNCCN(C)Cc1c[nH]nc1C1CCC(OCCOc2ccccc2)CC1` (stereo not shown) [Compound 136], the IC50 in assay [1] is under 0.1 µM; in assay [1] (setting [3]) it was 0.0072 µM. Besides, the EC30 in assay [2] (setting [4]) was under 3 µM; in assay [2] (setting [5]), 0.035 µM.
Regarding `CNCCN(C)Cc1c[nH]nc1C1CCC2(CCCCO2)CC1` (stereo not shown) [Compound 137], the results for the IC50 in assay [1] and in assay [1] (setting [3]) were under 0.1 µM and 0.0233 µM, respectively. The concentration for an effect of 30% (EC30) was under 3 µM in assay [2] (setting [4]) and 0.015 µM in assay [2] (setting [5]).
As for `CNCCN(C)Cc1c[nH]nc1[C@H]1CC[C@H](OC2CCCCC2)CC1` [Compound 139], the IC50 was under 0.1 µM in assay [1] and 0.0226 µM in assay [1] (setting [3]). The values for the EC30 in assay [2] (setting [4]) and in assay [2] (setting [5]) were under 3 µM and 0.627 µM, respectively.
For `CNCCN(C)Cc1c[nH]nc1[C@H]1CC[C@@H](OC2CCCCC2)CC1` [Compound 140] the same measures were under 0.1 µM, 0.024 µM, under 3 µM and 0.164 µM.
As for `CNCCN(C)Cc1c[nH]nc1[C@H]1CC[C@@]2(CCOC2)CC1` [Compound 141], the IC50 in assay [1] was under 0.1 µM; in assay [1] (setting [3]), 0.023 µM. The EC30 in assay [2] (setting [4]) was under 3 µM; in assay [2] (setting [5]) it was 0.132 µM.
On the same counts, the results for `CNCCN(C)Cc1c[nH]nc1[C@H]1CC[C@]2(CCOC2)CC1` [Compound 142] are under 0.1 µM, 0.0199 µM, under 3 µM and 0.052 µM.
As for `CNCCN(C)Cc1c[nH]nc1[C@H]1CC[C@@]2(CCCO2)CC1` [Compound 143], the results for the IC50 in assay [1] and in assay [1] (setting [3]) were under 0.1 µM and 0.022 µM, respectively. Besides, the values for the EC30 in assay [2] (setting [4]) and in assay [2] (setting [5]) were under 3 µM and 0.059 µM, respectively.
For `CNCCN(C)Cc1c[nH]nc1C1CCC2(CC1)CC2` [Compound 144] the same measures were under 0.1 µM, 0.0356 µM, under 3 µM and 0.063 µM.
On to `CNCCN(C)Cc1c[nH]nc1C1CCC2(CC1)CN(CC(C)C)C(=O)N2C` (stereo not shown) [Compound 145], for which the IC50 in assay [1] was under 0.1 µM; in assay [1] (setting [3]), 0.038 µM. Besides, the EC30 is under 3 µM in assay [2] (setting [4]) and 2.3 µM in assay [2] (setting [5]).
On the same counts, the results for `CNCCN(C)Cc1c[nH]nc1C1CCC2(CC1)CC(=O)N(Cc1ccc(OC)cc1)C2` (stereo not shown) [Compound 146] are under 0.1 µM, 0.0217 µM, under 3 µM and 0.16 µM.
